Some test systems named below: ACHN renal; CAKI-1 renal; CCRF-CEM leukemia; COLO 205 colon; DU-145 prostate; EKVX NSCLC; HL-60(TB) leukemia; HT29 colon; KM12 colon; LOX IMVI melanoma; MCF7 breast; MDA-MB-435; MOLT-4 leukemia; NCI-H226 lung; OVCAR-5 ovarian; PC-3 prostate; SF-268 CNS; U251 CNS; UACC-257 melanoma.
What all share (test): growth of human tumour cells (NCI), 48 h

The structures appear in SMILES notation.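 Compound exposure: 48 hours, 5 concentrations, 96-well plates. The concentration for full growth arrest is given as TGI.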 Where a SMILES comes first, the peptide text is derived from it. [ ]: non-standard residue; d: D form. pGlu = O=C1CC[CH](C(=O)O)N1

For eight compounds, TGI results are on record in PubChem BioAssay (NCI).

Take `COC(=O)Nc1nc2ccc(NS(=O)(=O)c3cccs3)cc2[nH]1`: the TGI in the assay on ACHN renal is greater than 100 µM; with CAKI-1 renal, greater than 100 µM; in the assay on CCRF-CEM leukemia it was greater than 100 µM; in the assay with COLO 205 colon it was greater than 100 µM; with DU-145 prostate it was greater than 100 µM; in the assay with EKVX NSCLC it was 73.7 µM. Further, the TGI with HL-60(TB) leukemia was 55.5 µM; with HT29 colon it was greater than 100 µM; with KM12 colon it was 89.5 µM; in the assay on LOX IMVI melanoma it was greater than 100 µM; with MCF7 breast it was 70.4 µM; in the assay with MDA-MB-435 it was 21.4 µM. Moreover, the TGI in the assay with MOLT-4 leukemia is 77.4 µM; in the assay with NCI-H226 lung, greater than 100 µM; in the assay on OVCAR-5 ovarian it was greater than 100 µM; in the assay on PC-3 prostate, greater than 100 µM; with SF-268 CNS, greater than 100 µM; with U251 CNS it was greater than 100 µM.

In the case of `C#CC1(O)CCC2[C@@H]3CCc4cc(Oc5nc(F)nc(-c6c(C)c(C(=O)OCC)n7ccccc67)n5)ccc4C3CC[C@@]21C` (stereo not given in full), the TGI with ACHN renal, in the assay on CAKI-1 renal, with CCRF-CEM leukemia, in the assay with COLO 205 colon, in the assay on DU-145 prostate and in the assay with EKVX NSCLC was greater than 100 µM each time. Further, the TGI in the assay on HL-60(TB) leukemia, in the assay with HT29 colon, in the assay with KM12 colon, with LOX IMVI melanoma, in the assay with MCF7 breast and in the assay with MDA-MB-435 was greater than 100 µM each time. Further, the TGI in the assay on MOLT-4 leukemia, in the assay with NCI-H226 lung, in the assay on OVCAR-5 ovarian, in the assay with PC-3 prostate, in the assay with SF-268 CNS and in the assay with U251 CNS was greater than 100 µM throughout. Besides, the TGI in the assay with UACC-257 melanoma was greater than 100 µM.

For `CC(NC(=O)C1CCC(=O)N1)C(=O)N1CCCC1C(N)=O` (stereo not drawn) ([pGlu]-Ala-Pro-NH2; configuration not given here), the TGI with ACHN renal, in the assay on CAKI-1 renal, in the assay on CCRF-CEM leukemia, in the assay with COLO 205 colon, in the assay with DU-145 prostate and in the assay with EKVX NSCLC was greater than 100 µM throughout. The TGI in the assay on HL-60(TB) leukemia, in the assay with HT29 colon, with KM12 colon, in the assay on LOX IMVI melanoma, in the assay on MCF7 breast and with MDA-MB-435 was greater than 100 µM throughout. The TGI in the assay on MOLT-4 leukemia, in the assay on NCI-H226 lung, in the assay with OVCAR-5 ovarian, with PC-3 prostate, with SF-268 CNS and in the assay with U251 CNS was greater than 100 µM each time.

Regarding `NC1=Nc2ccccc2Sc2nncn21`, the TGI with ACHN renal, in the assay with CAKI-1 renal, in the assay on CCRF-CEM leukemia, in the assay with COLO 205 colon, with DU-145 prostate and with EKVX NSCLC was greater than 100 µM each time. Further, the TGI in the assay on HL-60(TB) leukemia, with HT29 colon, with KM12 colon, with LOX IMVI melanoma, in the assay with MCF7 breast and with MDA-MB-435 was greater than 100 µM in each case. The TGI in the assay on MOLT-4 leukemia, in the assay with NCI-H226 lung, in the assay with OVCAR-5 ovarian, in the assay with PC-3 prostate, in the assay with SF-268 CNS and in the assay on U251 CNS was greater than 100 µM each time. This compound also registered a TGI in the assay on UACC-257 melanoma greater than 100 µM.

Consider `CC(C)(C)OC(=O)NCC(CNC(=O)OC(C)(C)C)C(N)=O`, for which the TGI in the assay with ACHN renal, with CAKI-1 renal, in the assay on CCRF-CEM leukemia, in the assay on COLO 205 colon, in the assay on DU-145 prostate and in the assay with EKVX NSCLC was greater than 100 µM throughout. The TGI with HL-60(TB) leukemia, in the assay with HT29 colon, in the assay with KM12 colon, with LOX IMVI melanoma, in the assay with MCF7 breast and with MDA-MB-435 was greater than 100 µM each time. Further, the TGI with MOLT-4 leukemia, with NCI-H226 lung, in the assay with OVCAR-5 ovarian, with PC-3 prostate, in the assay on SF-268 CNS and with U251 CNS was greater than 100 µM in each case. Besides, the TGI with UACC-257 melanoma is greater than 100 µM.

Take `Cc1nc(-c2ccccc2)cn2c1nc1ccccc12`: the TGI is 49.4 µM in the assay with ACHN renal; 62.1 µM in the assay with CAKI-1 renal; greater than 100 µM in the assay with CCRF-CEM leukemia; greater than 100 µM in the assay with COLO 205 colon; greater than 100 µM in the assay on DU-145 prostate; greater than 59.6 µM in the assay with EKVX NSCLC. Moreover, the TGI is greater than 100 µM with HL-60(TB) leukemia; greater than 56.4 µM in the assay on HT29 colon; greater than 70.3 µM in the assay with KM12 colon; greater than 31.6 µM in the assay on LOX IMVI melanoma; 23.4 µM in the assay with MCF7 breast; 36.9 µM with MDA-MB-435. Moreover, the TGI was greater than 100 µM with MOLT-4 leukemia; 41.1 µM with NCI-H226 lung; greater than 31.6 µM with OVCAR-5 ovarian; 69.5 µM with PC-3 prostate; greater than 66.8 µM in the assay with SF-268 CNS; 36.3 µM with U251 CNS. Further, the TGI in the assay with UACC-257 melanoma is greater than 82.3 µM.

Take `CC(NC1=NCCO1)c1ccccc1Cl` (stereo not given): the TGI with ACHN renal, with CAKI-1 renal, in the assay on CCRF-CEM leukemia, in the assay on COLO 205 colon, in the assay with DU-145 prostate and in the assay with EKVX NSCLC was greater than 100 µM each time. The TGI with HL-60(TB) leukemia, in the assay with HT29 colon, in the assay on KM12 colon, in the assay with LOX IMVI melanoma, with MCF7 breast and in the assay on MDA-MB-435 was greater than 100 µM in each case. Also, the TGI in the assay with MOLT-4 leukemia, in the assay on NCI-H226 lung, with OVCAR-5 ovarian, in the assay with PC-3 prostate, in the assay on SF-268 CNS and with U251 CNS was greater than 100 µM each time. The same compound registered a TGI in the assay with UACC-257 melanoma greater than 100 µM.

For `CN(O)C(=O)CCC(NC(=O)CCC(N)C(=O)O)C(=O)NCC(=O)O` (stereo not given), the TGI in the assay on ACHN renal, with CAKI-1 renal, in the assay on CCRF-CEM leukemia, with COLO 205 colon, with DU-145 prostate and in the assay with EKVX NSCLC was greater than 100 µM throughout. Besides, the TGI in the assay with HL-60(TB) leukemia, in the assay with HT29 colon, with KM12 colon, in the assay with LOX IMVI melanoma, in the assay on MCF7 breast and with MDA-MB-435 was greater than 100 µM throughout. Besides, the TGI in the assay with MOLT-4 leukemia, in the assay on NCI-H226 lung, with OVCAR-5 ovarian, with PC-3 prostate, in the assay on SF-268 CNS and in the assay on U251 CNS was greater than 100 µM in each case. The compound also had a TGI with UACC-257 melanoma greater than 100 µM.
